“And” between values parts separate entries of the source, which are not always exact repeats. Equal values may be shown once.
System: female Aedes aegypti mosquitoes
Assay: In vitro repellency against mosquitoes, treated collagen membranes over blood-filled wells
Format: in vivo
Settings: 20% DEET in ethanol (positive control), 25 μL on membrane; probes over 20 minutes; five replicates
Procedure: A laboratory trial was conducted to evaluate the repellency of santalol against female Aedes aegypti mosquitoes using an in vitro method. A 20% DEET positive control and untreated and ethanol negative controls were also assessed for comparison purposes. Test substances were applied to prepared collagen membranes placed over heated, blood-filled wells and exposed to mosquitoes. The number of mosquitoes probing each well was recorded at two minute intervals up to 20 minutes. Female adult laboratory reared Aedes aegypti mosquitoes (susceptible) were obtained from Benzon Research in Carlisle, Pa. 250 mosquitoes were used per replicate (5 replicates per test). Adult mosquitoes were 3-8 days old. Santalol was diluted in ethanol to 2% and 5% concentrations. A positive control consisting of 20% DEET in ethanol was prepared using stock solutions. Negative controls consisted of no treatment, and ethanol-only treatment. […] The number of mosquitoes probing each membrane was recorded every two minutes for twenty minutes. […] Percent repellency was calculated for each replicate using the total number of probes with the following formula: [formula] […] Average percent repellency and standard error (SE) were calculated across all five replicates. […]

## CCN(CC)C(=O)c1cccc(C)c1 [20% DEET, N,N-Diethyl-meta-toluamide]
  Average percent repellency ± SE: 93.9% and 93.9 ± 2.3%

Reference: US20180242591A1, “Insect Repellent” (Evolva SA, priority 2015, published 2018)
